Experimental data reported in patent US20040009196A1, “Use of dhea and some of its derivatives in a cosmetic composition for preventing or treating dermal atrophy” (priority 2000, published 2004).

Experiments:
[1] = test system: skin equivalent sold by the company EPISKIN; assay: Epidermal differentiation in reconstructed epidermis: transglutaminase and filaggrin immunofluorescence, histological analysis; assay type: cell-based; settings: 2 μl of DHEA at 1×10^−4 M in ethanol, topical, every 48 hours for 6 days
[2] = test system: skin equivalent sold by the company EPISKIN; assay: Topical DHEA on reconstructed epidermis: epidermal lipid analysis by HPTLC with [14C]acetate labelling; assay type: cell-based; settings: 2 μl of DHEA at 1×10^−4 M in ethanol, every 48 hours for 6 days, vs ethanol control
Protocol: In this example, 2 μl of DHEA at 1×10^−4 M in ethanol were applied every 48 hours, for 6 days, to a skin equivalent sold by the company EPISKIN (LYON, France), after culturing it for 7 days and incubating overnight with [^14C]acetate (2 μCi/ml). The culture and test media are those contained in the kit sold by the supplier. The control consists of an identical epidermal equivalent undergoing a topical application of 2 μl of ethanol diluted 1/1 000.
At the end of the incubation, the epidermal equivalent is detached from its collagenic support. The preparation of the lipids of the epidermal equivalent, and their analysis by HPTLC or high performance thin-layer chromatography, are carried out according to the technique and with the buffers described by M. Ponec (1991, Adv. Lipid Res., 24: 83-117). At the end of the migration of the lipids, autoradiography of the chromatography plate is carried out overnight.

Question: What does the source list for C[C@]12CC[C@H](O)CC1=CC[C@@H]1[C@@H]2CC[C@]2(C)C(=O)CC[C@@H]12 [DHEA, dehydroepiandrosterone]?
Answer: histological analysis: number of granular layers or parakeratosis [1]: no increase in the number of granular layers or in parakeratosis; modification in epidermal differentiation (expression of transglutaminase and of filaggrin, immunofluorescence labelling) [1]: no modification in epidermal differentiation; increase in the epidermal content of phospholipids compared with the control [2]: 35%
